Data from US9518283B1, “Selective enrichment media and uses thereof” (priority 2012, dated 2016).

Columns and labels:
[1] = system: Shiga toxin-producing E. coli and Salmonella; assay type: cell-based
[2] = system: non-Salmonella gram negative species; test: Media formulations / selective agents tested against competitor species; assay type: cell-based
Method: Several media formulations were tested for permitting growth of Salmonella while inhibiting growth of non-Salmonella species. […] To minimize the potential of such environmental microflora to contribute to false positive reactions in selective indicator media, flavonoid compounds were investigated. Myricetin was tested as a potential suitable inhibitor for at least some of these gram negative species.

With CCN(CC)c1ccc(C(=C2C=CC(=[N+](CC)CC)C=C2)c2ccccc2)cc1 [Brilliant green] the “effect against Shiga toxin-producing E. coli (or Salmonella)” value [1] was “no effect”.
With O=c1c(O)c(-c2cc(O)c(O)c(O)c2)oc2cc(O)cc(O)c12 [Myricetin] the effectiveness as inhibitor ([2]; Citrobacter and E. coli inactive isolates) was “of little use”, the inhibition ([2]; Enterobacter and Klebsiella spp.) was “inhibits” and the effectiveness as inhibitor ([2]; K. oxytoca and E. aerogenes) was “effective”.
In the case of O=C1CN(N=Cc2ccc([N+](=O)[O-])o2)C(=O)N1 [nitrofurantoin, 1-[[(5-Nitro-2-furanyl)methylene]amino]-2,4-imidazolidinedione], the “effectiveness against Shiga toxin-producing E. coli and Salmonella” value [1] was “surprisingly ineffective”.
